Results from patent publication US8937167B2 (Washington University, priority 2009, dated 2015).
Values after ≈ are worked out from the molar mass of the structure shown. “Also recorded” adds a separate entry of the source. Read-outs that look alike come from different tables or passages of the source.

How the values were obtained:
FimH [1] = target: FimH (Escherichia coli, UniProt Q1R2J4);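 note: hemagglutination inhibition of guinea pig erythrocytes agglutinated by type 1 piliated uropathogenic E. coli via FimH mannose binding, quantified through serial dilutions of compound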
UTI89 [2] = test: Mouse UTI model, bladder bacterial titers (CFU); format: in vivo, E. coli (UPEC); host C3H/HeN mouse; settings: 6 hours post-infection
Description: For mannoside treatment, bacteria were incubated with 1 mM ZFH56 prior to inoculation. Every 24 h for 3 days, mice were transurethrally inoculated with 1 mM ZFH56. For antibiotic treatment, mice were inoculated with UTI89 and immediately given antibiotics in the drinking water for 3 days. Antibiotics used were trimethoprim-sulfamethoxazole (SXT) at […], respectively. For dual treatment, bacteria were incubated with 1 mM ZFH56 prior to inoculation. Every 24 h for 3 days, mice were transurethrally inoculated with 1 mM ZFH56. Additionally, mice were immediately given antibiotics in the drinking water for 3 days as in the antibiotic only treatment. Urine was collected every day for 13 days. At 2 weeks, mice were sacrificed and bladders were titered.
UTI89 biofilm was grown in LB+/− mannoside for 24 h at 22° C. in PVC plates and quantitated using crystal violet. UTI89 biofilm for confocal microscopy was grown in LB for 24 h at 22° C. on PVC coverslips. Mannoside was then added and biofilm was grown for an additional 16 h. Coverslips were then washed in PBS, fixed in 2% paraformaldehyde and stained with SYTO9 prior to confocal microscopy. For all animal experiments UTI89 or PBC-1 was grown 2×24 h statically in LB at 37° C. and inoculated at a dose of 1×10^7 bacteria in 50 μl. All mice used were female C3H/HeN (Jackson). For the pretreatment studies, bacteria were incubated with mannoside for 20 min prior to inoculation into the mouse. […] For CFU counts, bladders were harvested at 6 hpi and placed in 1 mL PBS. Bladders were then homogenized, diluted and plated on LB. After growth at 37° C. overnight, bacterial counts were determined. LacZ staining and gentamicin protection assays were performed at 6 hpi. […] Water was changed daily with fresh antibiotics. Standard growth curve assays and hemagglutination assays were performed with TMP-SMZ. All statistical analysis performed was a two-tailed Mann-Whitney U test.
Animal infections. Bacteria were grown under type 1 pili-inducing conditions (2×24 h at 37° C. statically in LB). The bacteria were harvested and resuspended to an OD600 of 0.5 in PBS. Eight-week-old C3H/HeN (Harlan) female mice were anesthetized by inhalation of isoflurane and infected via transurethral catheterization with 50 μl of the bacterial suspension, resulting in 1-2×10^7 inoculum. At 6 hpi, mice were sacrificed by cervical dislocation under anesthesia and the bladders were immediately harvested and processed as described below. All animal studies using mice were approved by the Animal Studies Committee of Washington University (Animal Protocol Number 20100002).
Bladder tissue bacterial titer determination. Mannoside ZFH-2056 was administered either IP (5 mg/kg) or orally (100 mg/kg) 30 min prior to inoculation with UTI89. […]

UTI89 [3] = test: Ex vivo gentamicin protection assay of infected mouse bladders (luminal vs intracellular bacteria); format: in vivo, E. coli (UPEC); host mouse; settings: 1 hour post-infection, bacteria inoculated in presence of mannoside
Excerpt: Based on the extensive elucidation of the UPEC pathogenic cascade, critical nodes in pathogenesis that mannosides would target and thereby have powerful and potent therapeutic ramifications were identified. The first step in the UPEC pathway involves FimH-mediated colonization of the bladder epithelium via the recognition of mannose receptors. Bacterial invasion into superficial bladder umbrella cells can then ensue. […] To test this, a well-established gentamicin protection assay that allows the determination of the luminally bound fraction versus the intracellular fraction was utilized (FIG. 10). […] This may be due to contamination from bacteria in the urine or bacteria that are non-specifically associated with the epithelium. In any case, blocking invasion blocks the ability of the bacteria to rapidly expand in numbers. This is due to the ability of the mannosides to block the IBC mechanism.
Gentamicin protection assay. To enumerate bacteria present in the intracellular versus extracellular compartments, bladders were aseptically harvested at 6 hpi. The bladders were then bisected twice and washed three times in 500 μl of PBS each. The wash fractions were pooled, lightly spun at 500 rpm for 5 min to pellet exfoliated bladder cells, serially diluted, and plated onto LB agar to obtain the luminal fraction. The bladders were treated with 100 μg of gentamicin/ml for 90 min at 37° C. After treatment, the bladders were washed twice with PBS to eliminate residual gentamicin, homogenized in 1 ml of PBS, serially diluted, and plated onto LB agar to enumberate the CFUs in the intracellular fraction.
To enumerate bacteria present in the intracellular versus extracellular compartments, bladders were aseptically harvested at 6 hpi. The bladders were then bisected twice and washed three times in 500 μl of PBS each. The wash fractions were pooled, lightly spun at 500 rpm for 5 min to pellet exfoliated bladder cells, serially diluted, and plated onto LB agar to obtain the luminal fraction. The bladders were treated with 100 μg of gentamicin/ml for 90 min at 37° C. […]

UTI89 [4] = test: Enumeration of bladder IBCs by LacZ staining in infected mice; format: in vivo, E. coli (UPEC); host C3H/HeN mouse; settings: 6 hours post-infection
Description: After invasion, UPEC are able to rapidly replicate to form IBCs, thus dramatically expanding in numbers. After maturation of the IBC, bacteria are able to disperse from the biomass and spread to neighboring cells to expand the buildup in bacterial numbers via next generation IBC. The ability of mannosides to block IBC formation was evaluated based on LacZ staining of whole mount bladders, a protocol developed to enumerate IBCs. Whole bladder titers were also determined by quantifying colony forming units (CFUs) at 6 hours post-infection and later time points as test compounds were further developed.
(§1) Enumeration of bladder IBCs. For bacterial pretreatment experiments, mannoside was added to the bacterial suspension and incubated for 20 min. For animal pretreatment experiments, mannoside ZFH-2056 was administered either IP (5 mg/kg) or orally (100 mg/kg) 30 min prior to inoculation with UTI89. To accurately count the number of IBCs, mice were sacrificed 6 hpi and bladders were aseptically removed, bisected, splayed on silicone plates and fixed in 2% paraformaldehyde (v/v). IBCs, readily discernable as punctate violet spots, were quantified by LacZ staining of whole bladders.
as §1, with “For” for “Enumeration of bladder IBCs. For bacterial pretreatment experiments, mannoside was added to the bacterial suspension and incubated for 20 min. For”

FimH [5] = target: T1, FimH (Escherichia coli, UniProt P08191); test: biochemical; format: binding, E. coli; settings: FP assay potency
FimH [6] = target: T1, FimH; settings: previously reported, SPR, cited from earlier work
UTI89 [7] = test: Growth curve / MIC determination in LB; format: cell-based, E. coli (UPEC); settings: Escherichia coli
Description: (§2) Mannoside 6 was added at 100 μM. Growth curves were performed in a 96-well plate at 37° C. with A600 readings taken every 30 min for 8 h. Minimum inhibitory concentration (MIC) was calculated as the lowest concentration of antibiotic that prevented growth of the bacterial strain.

PBC-1 = test: Growth curve / MIC determination in LB; format: cell-based, E. coli (UPEC); settings: PBC-1
Description: Growth curve. […] Mannoside ZFH-2056 was added at 100 μM. Growth curves were performed in a 96-well plate at 37° C. with A600 readings taken every 30 min for 8 h.
as §2

UTI89 biofilm = test: Biofilm in human urine under flow on silicone tubing (crystal violet, CFU); format: cell-based, uropathogenic E. coli UTI89; settings: 1% in human urine, 24 h
Description: Biofilms were grown as described by Ferrieres et al. (2007; FEMS Immun. Med. Micro 51:212) on All Silicone Foley catheters (Bard Medical, GA) or silicone tubing (Thermo Fisher Scientific Inc., PA) and modified as follows. All tubing and connectors in the system were autoclaved and ethanol sterilized prior to use. The system was assembled similar to the previously described flow-chamber system. Priming of the catheter or the silicone tubing occurred at 37° C. for 20 min by flowing pre-warmed pooled human urine. Urine was collected from healthy volunteers as approved by the Institutional Review Board of Washington University in St. Louis. Pooled samples were spun at 10000×g for 15 min, filtered through […], and, if necessary, stored at 4° C. for no more than 3 days. Three milliliters of stationary-phase E. coli from overnight cultures were diluted to 1−2×10^6 CFU/ml in human urine and injected into the catheter or silicone tubing using a 30 cc gauge needle. The bacteria were allowed to attach to the substratum for 1 h before urine flow via Watson-Marlow peristaltic pump 205S was resumed at 0.5 ml min^−1. […] Viable bacterial counts were assessed by serial dilution on LB plate with appropriate antibiotics. […] The bound crystal violet was then dissolved in 200 μl of 33% acetic acid and absorbance measured at 595 nm. The amount of biofilm was expressed as CFU/ml per cm^2 and A595/cm^2. […]

[8] = UTI89 inoculated in presence of pilicide

NC(=O)c1cccc(OC2OC(CO)C(O)C(O)C2O)c1 (stereo not shown) [Compound 2ZFH98, 3-[3,4,5-trihydroxy-6-(hydroxymethyl)tetrahydropyran-2-yl]oxybenzamide]
HAI Titer EC>90 (FimH [1]): 16.000 µM | bladder CFUs / colonization (UTI89 [2]; 1 mM mannoside treated bacteria): significantly reduced colonization | intracellular bacteria (UTI89 [3]): significant decrease | IBCs (UTI89 [4]; 0.1 mM mannoside): significantly reduced IBCs | IBCs (UTI89 [4]; 1 mM mannoside): significantly reduced IBCs

O=C(O)[C@@H]1CSc2c(-c3cccc(C(F)(F)F)c3)c(Cc3cccc4ccccc34)cc(=O)n21 [FN075, reference compound]
bacterial load within the bladder (UTI89 [2]; [8]): significant attenuation of virulence; also recorded: significantly reduced bacterial load | IBCs in the bladder (UTI89 [4]; [8]): significant attenuation of virulence; also recorded: significantly less IBCs

CCCCCCCOC1OC(CO)C(O)C(O)C1O (stereo not shown) [Heptyl mannoside, reference compound]
EC50 (FimH [5]): 0.089 µM | Kd (FimH [6]): 0.005 µM

Cc1cc(NS(=O)(=O)c2ccc(N)cc2)no1 [SMZ, Sulfamethoxazole]
MIC (UTI89 [7]): 0.25 µg/mL (≈ 0.987 µM)

COc1cc(Cc2cnc(N)nc2N)cc(OC)c1OC [TMP, Trimethoprim]
MIC (PBC-1; Escherichia coli, read-out: Minimum Inhibition Concentration (MIC)): 256 µg/mL (≈ 882 µM) | MIC (PBC-1): 0.000256 µg/mL (≈ 0.000882 µM) | MIC (UTI89 [7]): 0.05 µg/mL (≈ 0.172 µM)

CCCCO[C@H]1O[C@H](CO)[C@@H](O)[C@H](O)[C@@H]1O [butylmannoside, α-D-butylmannoside]
Kd (FimH [6]; read-out: KD): 0.151 µM

COC1O[C@H](CO)[C@@H](O)[C@H](O)[C@@H]1O (stereo partly shown) [methyl mannose]
biofilm biomass (crystal violet) (UTI89 biofilm): significantly reduced biomass; also recorded: prevents UPEC biofilm formation | biofilm-adherent cells (CFU) (UTI89 biofilm): significantly reduced
